Each structure is given as a SMILES string. Values after ≈ are worked out from the molar mass of the structure shown.

The nature of series [1]: Inhibition of Staphylococcus aureus LigA by FRET-based assay.
Series [2] in a line: Inhibition of Streptococcus pneumoniae LigA by FRET-based assay.
The test system of the next series is Streptococcus pneumoniae. Description: Antibacterial activity against Streptococcus pneumoniae. Type of series: functional.
Series [3] can be described thus: Lipophilicity, log D of the compound in octanol buffer at pH 7.4 by shake flask method. It is filed as physicochemical.
Series [4] is described as follows: Equilibrium solubility of the compound. It is filed as physicochemical.
For the next series, the system named is Staphylococcus aureus. Description: Antibacterial activity against Staphylococcus aureus. It is filed as functional.
Series [5] is described as follows: Plasma protein binding in human assessed as fraction unbound by equilibrium dialysis method. It is filed as ADME, cell-free.
Series [6] can be described thus: Inhibition of […] LigA by FRET-based assay. The arrangement: species or system Haemophilus influenzae.
A short description of series [7]: Inhibition of Escherichia coli LigA by FRET-based assay.
The target of a further series is DNA ligase 1 (Homo sapiens, UniProt P18858). Put plainly: Inhibition of human DNA Ligase I by FRET-based assay.
DNA ligase 1, sequence (P18858 whole entry): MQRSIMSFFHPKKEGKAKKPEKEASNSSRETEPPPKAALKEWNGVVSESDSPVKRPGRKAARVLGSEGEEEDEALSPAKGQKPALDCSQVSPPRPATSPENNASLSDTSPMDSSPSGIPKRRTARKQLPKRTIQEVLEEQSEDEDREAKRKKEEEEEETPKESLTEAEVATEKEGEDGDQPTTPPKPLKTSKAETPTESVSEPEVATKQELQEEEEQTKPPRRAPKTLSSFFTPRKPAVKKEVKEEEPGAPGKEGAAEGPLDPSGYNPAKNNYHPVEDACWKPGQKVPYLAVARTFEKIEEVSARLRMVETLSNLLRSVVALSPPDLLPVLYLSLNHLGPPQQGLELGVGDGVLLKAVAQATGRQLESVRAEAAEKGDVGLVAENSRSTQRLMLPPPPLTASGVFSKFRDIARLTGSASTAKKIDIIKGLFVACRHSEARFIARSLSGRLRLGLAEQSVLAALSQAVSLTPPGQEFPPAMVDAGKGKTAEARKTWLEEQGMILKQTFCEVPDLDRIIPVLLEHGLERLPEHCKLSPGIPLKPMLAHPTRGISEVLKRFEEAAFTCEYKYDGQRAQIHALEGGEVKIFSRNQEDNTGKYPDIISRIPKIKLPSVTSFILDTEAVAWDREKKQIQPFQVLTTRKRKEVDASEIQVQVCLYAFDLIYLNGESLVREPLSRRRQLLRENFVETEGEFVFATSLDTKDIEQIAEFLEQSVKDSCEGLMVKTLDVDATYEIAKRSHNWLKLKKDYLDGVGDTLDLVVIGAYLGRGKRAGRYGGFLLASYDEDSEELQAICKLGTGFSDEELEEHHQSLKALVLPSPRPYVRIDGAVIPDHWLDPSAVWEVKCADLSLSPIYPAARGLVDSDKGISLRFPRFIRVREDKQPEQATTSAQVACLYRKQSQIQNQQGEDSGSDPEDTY
The next series relates to Haemophilus influenzae. Put plainly: Antibacterial activity against efflux pump-deficient Haemophilus influenzae. Type of series: functional.
Series [8] can be described thus: Apparent permeability from apical to basolateral side in human Caco2 cells. Type of series: ADME, cell-based. The conditions noted are these: Caco-2.

As for `C[C@H]1O[C@@H](n2cnc3c(N)nc(OC4CCCC4)nc32)[C@H](O)[C@@H]1OCc1ccc(Cl)c(Cl)c1`, the IC50 was 0.13 µM in [1] and below 0.01 µM in series [2]. Moreover, the MIC against Streptococcus pneumoniae came to 0.5 µg/mL (≈ 1.01 µM); against Staphylococcus aureus it was 8 µg/mL (≈ 16.2 µM). In addition, the logD in series [3] was above 3.5. The compound further displayed a solubility (thermodynamic) in [4] below 1 µM.
In the case of `Nc1nc(OC2CCCC2)nc2c1ncn2[C@@H]1O[C@H](CO)[C@@H](O)[C@H]1O`, the IC50 in series [1] was found to be 0.43 µM; in [2] it was 0.15 µM. In addition, the MIC worked out at 16 µg/mL (≈ 45.5 µM) against Streptococcus pneumoniae and 64 µg/mL (≈ 182 µM) with Staphylococcus aureus. Besides, the fraction unbound in [5] is 0.66.
As to `Nc1nc(OCC2CCC2)nc2c1ncn2[C@@H]1O[C@H](CF)[C@@H](O)[C@H]1O`, the IC50 was found to be 0.06 µM in series [1] and 0.05 µM in [2]. Also, the values for the MIC in the series on Streptococcus pneumoniae and in the series on Staphylococcus aureus were 2 µg/mL (≈ 5.66 µM) and 8 µg/mL (≈ 22.6 µM), respectively.
For `Nc1nc(OCC2(CO)CC2)nc2c1ncn2[C@@H]1O[C@H](CF)[C@@H](O)[C@H]1O`, the half-inhibitory concentration (IC50) in series [1] worked out at 0.37 µM; in series [2] it was 0.4 µM. In addition, the MIC against Streptococcus pneumoniae and with Staphylococcus aureus was above 64 µg/mL in each case.
Regarding `CCCCSc1nc(N)c2ncn([C@@H]3O[C@H](CO)[C@@H](O)[C@H]3O)c2n1`, the IC50 in series [1] is 0.08 µM; in [6] it was 0.51 µM; in [2] it was 0.14 µM; in series [7], 1.27 µM; against DNA ligase 1, above 200 µM. Moreover, the MIC is 32 µg/mL (≈ 90 µM) in the series with Streptococcus pneumoniae, 32 µg/mL (≈ 90 µM) in the series on Haemophilus influenzae and above 64 µg/mL in the series on Staphylococcus aureus. Besides, in series [5], the free fraction (fraction unbound) worked out at 0.003.
Consider `[N-]=[N+]=N[C@@H]1[C@@H](O)[C@H](n2cnc3c(N)nc(OC4CCCC4)nc32)O[C@@H]1CF`, for which the half-inhibitory concentration (IC50) in series [1] was determined as 0.09 µM; in series [2], 0.07 µM. In addition, the values for the MIC in the series with Streptococcus pneumoniae and in the series with Staphylococcus aureus were 0.5 µg/mL (≈ 1.32 µM) and 8 µg/mL (≈ 21.1 µM), respectively. The log distribution coefficient (logD) in series [3] amounted to 2.65. The free fraction (fraction unbound) in series [5] was 0.19.
Regarding `C[C@H]1O[C@@H](n2cnc3c(N)nc(OC4CC5CC5C4)nc32)[C@H](O)[C@@H]1O` (some centres undefined), the concentration for half-maximal inhibition (IC50) in [1] is 0.13 µM; in series [2], 0.06 µM. Besides, the results for the MIC in the series with Streptococcus pneumoniae and in the series with Staphylococcus aureus were 2 µg/mL (≈ 5.76 µM) and 4 µg/mL (≈ 11.5 µM), respectively.
With `Nc1nc(OCc2nccs2)nc2c1ncn2[C@@H]1O[C@H](CF)[C@@H](O)[C@H]1O`, the 50% inhibitory concentration (IC50) was 0.91 µM in series [1] and 0.87 µM in series [2]. For the same compound, the figures for the MIC with Streptococcus pneumoniae and in the series on Staphylococcus aureus were 64 µg/mL (≈ 167 µM) and above 64 µg/mL, respectively.
For `C[C@H]1O[C@@H](n2cnc3c(N)nc(OCC4CC45CC5)nc32)[C@H](O)[C@@H]1O` (some centres undefined), the IC50 in series [1] worked out at 0.06 µM; in series [2], 0.04 µM. Besides, the MIC stood at 1 µg/mL (≈ 2.88 µM) against Streptococcus pneumoniae and 2 µg/mL (≈ 5.76 µM) in the series on Staphylococcus aureus. In [3], the logD is 1.78. Moreover, in series [4], the thermodynamic solubility was 801 µM (≈ 278 µg/mL). Further, the unbound share (fraction unbound) in series [5] was determined as 0.25.
Regarding `C[C@H]1O[C@@H](n2cnc3c(N)nc(Oc4ccccc4)nc32)[C@H](O)[C@@H]1O`, the IC50 amounted to 0.14 µM in [1] and 2.67 µM in series [2]. Besides, the MIC in the series on Streptococcus pneumoniae and with Staphylococcus aureus was 64 µg/mL (≈ 186 µM) throughout.
On to `Nc1nc(SC2CCCC2)nc2c1ncn2[C@@H]1O[C@H](CO)[C@@H](O)[C@H]1O`, for which the concentration for half-maximal inhibition (IC50) in series [1] turned out to be 0.38 µM; in series [2], 0.44 µM. Besides, the MIC was found to be 16 µg/mL (≈ 43.5 µM) in the series on Streptococcus pneumoniae and 32 µg/mL (≈ 87.1 µM) against Staphylococcus aureus.
Turning to `Nc1nc(OC2CCCC2)nc2c1ncn2[C@@H]1O[C@H](CO)[C@H](Cl)[C@H]1O`, the IC50 in [1] is 0.11 µM; in series [2], 0.08 µM. Besides, the MIC with Streptococcus pneumoniae and in the series with Staphylococcus aureus was 8 µg/mL (≈ 21.6 µM) throughout.
Turning to `Nc1nc(OC2CCCC2)nc2c1ncn2[C@@H]1O[C@H](CF)[C@@H](O)[C@H]1O`, the concentration for half-maximal inhibition (IC50) in series [1] and in series [2] was 0.12 µM in each case. Moreover, the MIC against Streptococcus pneumoniae was found to be 4 µg/mL (≈ 11.3 µM); against Staphylococcus aureus it was 16 µg/mL (≈ 45.3 µM).
Consider `CCCCSc1nc(N)c2ncn([C@@H]3O[C@H](C)[C@@H](O)[C@H]3O)c2n1`, for which the IC50 in series [1] came out at 0.17 µM; in [2] it was 0.13 µM. For the same compound, the results for the MIC against Streptococcus pneumoniae and in the series with Staphylococcus aureus were 8 µg/mL (≈ 23.6 µM) and 64 µg/mL (≈ 189 µM), respectively.
Take `C[C@H]1O[C@@H](n2cnc3c(N)nc(OC4CCCC4)nc32)[C@H](O)[C@@H]1O`: the half-maximal inhibitory concentration (IC50) in [1] came out at 0.12 µM; in series [2], 0.08 µM. Further, the MIC against Streptococcus pneumoniae worked out at 2 µg/mL (≈ 5.96 µM); in the series with Staphylococcus aureus, 8 µg/mL (≈ 23.9 µM). In addition, the apparent permeability from apical to basolateral (Papp A→B) in series [8] stood at 7.26 ×10⁻⁶ cm/s.
As to `C[C@H]1O[C@@H](n2cnc3c(N)nc(OCC4CC45CC5)nc32)[C@H](O)[C@H]1Cl` (some centres undefined), the half-maximal inhibitory concentration (IC50) came to 0.03 µM in series [1] and 0.02 µM in [2]. Besides, the MIC in the series on Streptococcus pneumoniae was 0.5 µg/mL (≈ 1.37 µM); against Staphylococcus aureus it was 1 µg/mL (≈ 2.73 µM). The compound further yielded a logD in series [3] of 3.7. The thermodynamic solubility in series [4] was found to be 21 µM (≈ 7.68 µg/mL). For the same compound, the unbound share (fraction unbound) in series [5] is 0.04.
On to `C[C@H]1O[C@@H](n2cnc3c(N)nc(O[C@H]4CC[C@H](C)CC4)nc32)[C@H](O)[C@@H]1O`, for which the IC50 in series [1] amounted to 0.16 µM; in [2] it was 0.05 µM. The MIC against Streptococcus pneumoniae was 1 µg/mL (≈ 2.75 µM); in the series on Staphylococcus aureus, 2 µg/mL (≈ 5.5 µM). In series [3], the logD was found to be 2.35. In [4], this compound had a thermodynamic solubility of 934 µM (≈ 339 µg/mL). The fraction unbound in series [5] is 0.27.
`C[C@H]1O[C@@H](n2cnc3c(N)nc(OC4CCCC4)nc32)[C@H](O)[C@H]1Cl`: the IC50 in series [1] and in series [2] was 0.04 µM throughout. For the same compound, the MIC in the series on Streptococcus pneumoniae is 4 µg/mL (≈ 11.3 µM); against Staphylococcus aureus, 8 µg/mL (≈ 22.6 µM). In addition, the log distribution coefficient (logD) in [3] worked out at 3.18. This compound registered a solubility (thermodynamic) in [4] of 304 µM (≈ 108 µg/mL).

The record behind these values is ChEMBL document CHEMBL1806435, “Discovery of bacterial NAD+-dependent DNA ligase inhibitors: optimization of antibacterial activity” (Bioorg Med Chem Lett, 2011).
